According to patent publication US20260183286A1, “Compositions and Methods for an Oral Supplement to Oral Minoxidil for the Treatment of Alopecia” (FOLLEA INTERNATIONAL, priority 2023, published 2026):

Test system: SLC22A9
Experiment: Placebo controlled study of ammonium chloride oral supplement: SLC22A9 expression from hair follicles
Assay type: in vivo
Conditions: 268 mg ammonium chloride oral supplement daily for 5 days; measured at baseline and day 5; 10 subjects active vs 10 placebo; p=0.01
Experimental: A placebo controlled study was conducted with a 268 mg ammonium chloride oral supplement to ascertain increase in SLC22A9 up-regulation. Ten subjects were administered the placebo and 10 subjects were administered ammonium chloride daily for 5 days. The SLC22A9 expression from hair follicles was measured at baseline and day 5. SLC22A9 increased 3 folds and was statistically significant p=0.01 increased in the active vs placebo group.

## Cl.N [ammonium chloride]
  SLC22A9 expression from hair follicles, increase: 3 folds
